Test results as given in patent US6159733A, “Method for photoinactivating malignant cells” (priority 1996, dated 2000).

What was measured:
WEHI-3 cells [1] = test: Photoinactivation of cell line, colony forming assay; format: cell-based, murine
Description: (§1) Cell lines and culture conditions. WEHI-3 (murine myelocytic leukemia), L1210 (murine lymphocytic leukemia) and P815 (murine mastocytoma) cells were grown in RPMI 1640 (GibcoBRL, Grand Island, N.Y.) supplemented with 10% FBS. BC3A (murine leukemia) cells were grown in RPMI 1640 supplemented with 10 μM β-mercaptoethanol and 10% FBS; ABE-8.1/2 (murine pre-B lymphoma) cells were grown in DMEM (GibcoBRL)--10 μM β-mercaptoethanol--10% FBS. All cell lines were obtained from the American Type Culture Collection (Rockville, Md.) and were cultured at 37° C. in a humidified 5% CO2 -incubator. Prior to incubation with Pc 4, the cell lines were centrifuged and resuspended in phosphate buffered saline (PBS)--10% FBS, pH 7.4.
(§2) Photosensitization. Aliquots of a 1.87 mM Pc 4 (kindly provided by Dr. M. E. Kenney) stock solution in dimethyl sulfoxide were kept at -80° C. in autoclaved brown glass vials. Immediately prior to the photosensitization, Pc4 was thawed and diluted in dimethyl formamide to yield a 10 μM working solution. […] Pc 4 was used at 15 nM throughout the experiments.
(§3) BM and cell line samples, were incubated with 15 nM Pc 4 for two hours at 37° C. at cell concentrations of 1.5×10^7 cells/mL. Aliquots of 1.5 mL were transferred to 24-well plates; separate plates were used for each sample.
(§4) In a second set of experiments, the cells were incubated with 15 nM Pc 4 at cell concentrations of 1.5×10^6 cells/mL. Prior to photoirradiation, the samples were centrifuged and the supernatants were aspirated and set aside. The cell concentrations were adjusted to 1.5×10^7 cells/mL by adding back an appropriate volume of the Pc 4 containing aspirates.
(§5) Photoinactivation. The light source used was a filtered xenon short arc lamp (Versa-Light, Model UV-R6G, Medic Lightech, Ltd., Haifa, Israel). It was used to deliver red light (λ 600-700 nm) to the sensitized cells. After a 20 minute warm up period of the instrument, the distance from the light source to the bottom of the 24-well plate was adjusted to obtain a fluence rate of 26.6 mW/cm^2, as measured with a radiometer (Model IL 1350, International Light, Newburyport, Mass.). Samples were placed under the light source and were stirred during the irradiations. Before and after the irradiations, samples were kept in the dark.
(§6) Cell line samples were plated (in triplicate) in a semi-solid medium which consisted of DMEM--20% vol/vol serum (2/3 horse serum, 1/3 FBS)--3 mM glutamine--60 μM β-mercaptoethanol--0.3% wt/vol agar. The samples were incubated at 37° C. in a humidified 5% CO2 -incubator, and colonies consisting of more than 50 cells were counted after nine days.
(§7) Statistics. All assays were performed in triplicate unless mentioned otherwise. Data are expressed as mean values±standard error of the mean (SEM). Survival data are presented as surviving fractions relative to the surviving fractions of the untreated controls. The significance of the differences between experimental values was assessed by means of the Student's t-test.

ABE-8.1/2 cells = test: as above; format: cell-based, murine; conditions: for fluence for photoinactivation to below the detection levels: 15 nM
Description: as §1, §2, §3, §4, §5, §6, §7

P815 cells = test: as above; format: cell-based, murine
Description: as §1, §2, §3, §4, §5, §6, §7

BC3A cells [2] = test: as above; format: cell-based, murine; conditions: for fluence for photoinactivation to below the detection levels: 15 nM
Description: as §1, §2, §3, §4, §5, §6, §7

L1210 cells [3] = test: as above; format: cell-based, murine; conditions: for fluence for photoinactivation to below the detection levels: 15 nM
Description: as §1, §2, §3, §4, §5, §6, §7

CFU-GM = conditions: 15 nM Pc 4, 5×10^6 cells/mL, 8 J/cm^2; cited from earlier work
WEHI-3 cells [4] = test: Uptake of Pc 4 in mixtures of BM and cell lines; format: cell-based, murine
Description: (§8) In mixing experiments, aliquots of Ly-5.2 BM and cell lines samples were mixed at different ratios. The combined cell concentration of each sample was 1.5×10^7 cells/mL. […] The cell lines were stained with anti-Ly-5.1^FITC. This treatment allowed clear resolution of the relatively small ABE-8.1/2 and BC3A cells from the bone marrow granulocytes. Immediately prior to the analyses, propidium iodide (PI, 0.5 μg/mL) was added to the samples to allow exclusion of dead cells (PI^+) from the analyses. The samples were analyzed in a FACStar^PLUS (BD) that was equipped with an argon ion laser tuned to 488 nm (200 mW) and a dye laser tuned to 610 nm (300 mW). FITC, PE, PI and Pc 4 fluorescence emissions were collected through 530/30, 575/42, 660/10, 670/10 nm band pass filters, respectively.

BC3A cells [5] = test: Uptake of Pc 4 in mixtures of BM and cell lines; format: cell-based, murine; conditions: for Pc 4 content in cell line: BM/BC3A
Description: as §8

L1210 cells [6] = test: Uptake of Pc 4 in mixtures of BM and cell lines; format: cell-based, murine
Description: as §8

BFU-E = conditions: 15 nM Pc 4, 5×10^6 cells/mL, 8 J/cm^2; cited from earlier work
[7] = versus 1.5×10^7 cells/mL without BM

CN(C)CCC[Si](C)(C)O[Si]1(O)n2c3c4ccccc4c2N=C2N=C(N=c4c5ccccc5c(n41)=NC1=NC(=N3)c3ccccc31)c1ccccc12 (stereo not shown) [Pc 4, hydroxysiloxy-dimethylpropyl-N-dimethyl silicon phthalocyanine]
fluence for photoinactivation to below the detection levels (WEHI-3 cells [1]; 15 nM, 1.5×10^6 cells/mL): 12 J/cm^2
selectivity of photoinactivation towards the cell line (WEHI-3 cells [1]; 1.5×10^6 cells/mL): ~4 log10
selective photoinactivation (WEHI-3 cells [1]; 1.5×10^7 cells/mL, 18 J/cm^2): 5 log10
viability at 0.015 µM (WEHI-3 cells [1]; Mus musculus, WEHI-3, light or radiation study, read-out: surviving fraction): 0.00038%
fluence for photoinactivation to below the detection levels (ABE-8.1/2 cells; 1.5×10^6 cells/mL): 3 J/cm^2
fluence for photoinactivation to below the detection levels (ABE-8.1/2 cells; 1.5×10^7 cells/mL): 12 J/cm^2
selectivity of photoinactivation towards the cell line (ABE-8.1/2 cells; 1.5×10^6 cells/mL): approximately 5 log10
selective photoinactivation (ABE-8.1/2 cells; 1.5×10^7 cells/mL, 18 J/cm^2): > 6 log10
fluence for photoinactivation to below the detection levels (P815 cells; 15 nM, 1.5×10^6 cells/mL): 6 J/cm^2
selectivity of photoinactivation towards the cell line (P815 cells; 1.5×10^6 cells/mL): ~3 logs
selective photoinactivation (P815 cells; 1.5×10^7 cells/mL, 18 J/cm^2): > 3 log10
viability at 0.015 µM (P815 cells; Mus musculus, P815, light or radiation study, read-out: surviving fraction): 0.053 ± 2.6e-06%
fluence for photoinactivation to below the detection levels (BC3A cells [2]; 1.5×10^6 cells/mL): 6 J/cm^2
fluence for photoinactivation to below the detection levels (BC3A cells [2]; 1.5×10^7 cells/mL): 12 J/cm^2
selectivity of photoinactivation towards the cell line (BC3A cells [2]; 1.5×10^6 cells/mL): approximately 5 log10
selective photoinactivation (BC3A cells [2]; 1.5×10^7 cells/mL, 18 J/cm^2): > 6 log10
fluence for photoinactivation to below the detection levels (L1210 cells [3]; 1.5×10^6 cells/mL): 6 J/cm^2
fluence for photoinactivation to below the detection levels (L1210 cells [3]; 1.5×10^7 cells/mL): 18 J/cm^2
selectivity of photoinactivation towards the cell line (L1210 cells [3]; 1.5×10^6 cells/mL): < 1 log10
selective photoinactivation (L1210 cells [3]; 1.5×10^7 cells/mL, 18 J/cm^2): > 6 log10
surviving fraction of human cells (CFU-GM): 1.0
Pc 4 content in cell line (WEHI-3 cells [4]; BM/WEHI-3, BM fraction 0.50): 106 Mean fluorescence/cell
Pc 4 content in cell line (WEHI-3 cells [4]; BM/WEHI-3, BM fraction 0.70): 140 Mean fluorescence/cell
Pc 4 content in cell line (WEHI-3 cells [4]; BM/WEHI-3, BM fraction 0.80): 164 Mean fluorescence/cell
Pc 4 content in cell line (WEHI-3 cells [4]; BM/WEHI-3, BM fraction 0.90): 204 Mean fluorescence/cell
Pc 4 content in cell line (WEHI-3 cells [4]; BM/WEHI-3, BM fraction 0.95): 229 Mean fluorescence/cell
Pc 4 uptake in mixtures versus cell line alone (WEHI-3 cells [4]; [7]): contained more Pc 4
Pc 4 content in cell line (BC3A cells [5]; BM fraction 0.50): 104 Mean fluorescence/cell
Pc 4 content in cell line (BC3A cells [5]; BM fraction 0.70): 26 Mean fluorescence/cell
Pc 4 content in cell line (BC3A cells [5]; BM fraction 0.80): 138 Mean fluorescence/cell
Pc 4 content in cell line (BC3A cells [5]; BM fraction 0.90): 153 Mean fluorescence/cell
Pc 4 content in cell line (BC3A cells [5]; BM fraction 0.95): 166 Mean fluorescence/cell
Pc 4 uptake in mixtures versus cell line alone (BC3A cells [5]; [7]): contained more Pc 4
Pc 4 content in cell line (L1210 cells [6]; BM/L1210, BM fraction 0.50): 153 Mean fluorescence/cell
Pc 4 content in cell line (L1210 cells [6]; BM/L1210, BM fraction 0.70): 189 Mean fluorescence/cell
Pc 4 content in cell line (L1210 cells [6]; BM/L1210, BM fraction 0.80): 210 Mean fluorescence/cell
Pc 4 content in cell line (L1210 cells [6]; BM/L1210, BM fraction 0.90): 242 Mean fluorescence/cell
Pc 4 content in cell line (L1210 cells [6]; BM/L1210, BM fraction 0.95): 260 Mean fluorescence/cell
Pc 4 uptake in mixtures versus cell line alone (L1210 cells [6]; [7]): contained more Pc 4
surviving fraction of human cells (BFU-E): 0.9
